From US11427590B2, “Small molecule inhibitors of neutral sphingomyelinase 2 (nSMase2) for the treatment of neurodegenerative diseases” (The Johns Hopkins University, priority 2017, dated 2022)
Where two headings read alike, the source gives them in different places.

How the values were obtained:
human nSMase2 = human nSMase2 (Homo sapiens (Human), UniProt Q9NY59); experiment: Human nSMase2 fluorescence-based activity assay; assay type: biochemical
From the text: Figuera-Losada, et al. Lysate of cells expressing recombinant nSMase2 is used to catalyze the hydrolysis of sphingomyelin (SM) to ceramide and phosphorylcholine.

[1] = Phase I metabolic stability in mouse liver microsomes; assay type: in vitro ADME; conditions: 37° C.
Description: (§1) Phase I metabolic stability in both mouse and human liver microsomes was performed as described previously. Rais et al. Briefly, compounds are spiked in liver microsomes (mouse, human) and incubated in an orbital shaker at 37° C. […] Compound disappearance is monitored over time using LC/MS/MS.

[2] = Phase I metabolic stability in human liver microsomes; assay type: in vitro ADME; conditions: 37° C.
Description: as §1

rat astrocytes = experiment: Inhibition of exosome release from primary astrocytes in vitro; assay type: cell-based; conditions: 0.3-10 μM, 2 h after treatment, vs DMSO (0.02%)
Description: The effect of nSMase2 inhibitors on the manufacturing and release of ceramide rich exosomes from primary astrocytes was investigated as previously described. Dickens, et al. Briefly, rat astrocytes are seeded onto 6-well plates at a density of 20,000 cells/well. Twenty-four hours after seeding, astrocytes are washed with PBS and the medium changed to media without FBS. Absence of FBS mimics a trophic factor withdrawal stimulus causing the release of exosomes via a nSMase2-dependent pathway. Astrocytes are then treated with nSMase2 inhibitors at concentrations in the range 0.03-30 μM. DMSO (0.02%) is used as control. Two hours after treatment, media is collected and centrifuged at 2700 g for 15 min (4° C.). Supernatant is further centrifuged at 10,000 g for 15 min (4° C.) to remove large particles such as apoptotic bodies. Astrocyte-derived extracellular vesicles (EVs) are isolated via ultracentrifugation at 100,000 g for 3 h at 4° C. Fractions containing EV are washed twice with 5 ml PBS and the final pellet resuspended in PBS. This isolation procedure results in the isolation of EVs with a narrow size range and protein markers consistent with exosomes. Dickens, et al. The number of EVs is quantified using ZetaView Nanoparticle Tracker (Particle Metrix GmBH, Meerbusch, Germany) and the corresponding ZetaVeiw software (8.03.04.01). Nanosphere size standard 100 nm (Thermo Scientific) is used to calibrate the instrument prior to sample readings. For each sample 1 mL of the supernatant is injected into the sample-carrier cell and the particle count measured at 5 positions, with 2 cycles of reading per position. Cells are washed with PBS after every sample. Mean concentration of EVs/mL (±SEM) is calculated from 6 replicates. This screening assay is reliable with a Z′=0.75.
Referring now to FIG. 4A and FIG. 4B, the ability of compound 38 and several of its analogs to inhibit exosome release in vitro was evaluated as previously described. […] Two hours after treatment, exosomes were isolated from the media and quantified using ZetaView Nanoparticle Tracker. The mean concentration of exosomes (EVs/mL±SEM) was calculated from 6 replicate experiments (see FIG. 4). […] Baseline exosome release can be variable between experiments; as a result, inhibition is always compared relative to vehicle treatment within the same experiment. Structures of compounds with their corresponding IC50s are provided in the second row of FIG. 4.

[3] = inhibition of nSMase2, IC50 category A-D, read-out: Activity*
[4] = inhibition of nSMase2, read-out: IC50

human nSMase2, sequence (Q9NY59 whole entry): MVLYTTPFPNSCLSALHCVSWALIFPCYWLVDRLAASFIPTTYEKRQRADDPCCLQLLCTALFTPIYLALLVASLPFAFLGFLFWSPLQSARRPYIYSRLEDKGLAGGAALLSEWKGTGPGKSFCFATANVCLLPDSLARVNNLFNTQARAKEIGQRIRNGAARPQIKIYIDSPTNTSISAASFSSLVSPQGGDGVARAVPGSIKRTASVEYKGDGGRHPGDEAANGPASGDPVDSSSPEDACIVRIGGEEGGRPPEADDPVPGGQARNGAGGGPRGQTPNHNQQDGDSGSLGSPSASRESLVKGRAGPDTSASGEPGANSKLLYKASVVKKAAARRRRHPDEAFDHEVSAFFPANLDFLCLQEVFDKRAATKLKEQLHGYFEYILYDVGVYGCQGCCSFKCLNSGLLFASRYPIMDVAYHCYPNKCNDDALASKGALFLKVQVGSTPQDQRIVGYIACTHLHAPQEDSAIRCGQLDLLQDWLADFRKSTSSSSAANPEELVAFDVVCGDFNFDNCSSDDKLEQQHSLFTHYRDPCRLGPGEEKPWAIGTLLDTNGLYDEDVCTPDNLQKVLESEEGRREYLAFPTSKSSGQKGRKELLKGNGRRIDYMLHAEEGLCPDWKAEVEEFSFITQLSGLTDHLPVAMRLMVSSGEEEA

Structure (SMILES) | IC50 (human nSMase2; [3]) | IC50 (human nSMase2; [4]) | also measured
COc1ccc(-n2cnc3c(N4CC[C@@H](NC(C)=O)C4)nc(C)nc32)cc1OC [2-PROV] | > 100 µM |  | 
COc1ccc(-n2c(C)nc3c(N4CC[C@@H](NC(C)=O)C4)nc(C)nc32)cc1OC [3-PROV] | > 100 µM |  | 
COc1ccc(-c2c(C)nn3c(N4CC[C@@H](NC(C)=O)C4)cc(C)nc23)cc1OC [4-PROV] | > 100 µM |  | 
COc1ccc(-n2c(C)nc3c(N4CC[C@@H](NC(C)=O)C4)ncnc32)cc1OC [5-PROV] | > 100 µM |  | 
COc1ccc(-n2cnc3c(N4CC[C@@H](NC(C)=O)C4)ncnc32)cc1OC [6-PROV] | > 100 µM |  | 
COc1ccc(-c2c(C)oc3c(N4CC[C@@H](NC(C)=O)C4)cc(C)nc23)cc1OC [8-PROV] | > 100 µM |  | 
CC(=O)N[C@@H]1CCN(c2cc(Cl)nn3cc(C)nc23)C1 [9-PROV] |  | > 100 µM | 
COc1ccc(-n2ncc3c(N4CC[C@@H](NC(C)=O)C4)nc(C)nc32)cc1OC [10-PROV] | > 100 µM |  | 
COc1ccc(-c2c(C)nc3c(N4CC[C@@H](NC(C)=O)C4)cc(Cl)nn23)cc1 [11-PROV] |  | > 100 µM | 
COc1ccc(-c2c3nc(C)nc(N4CC[C@@H](NC(C)=O)C4)c3nn2C)cc1OC [12-PROV] | > 100 µM |  | 
COc1ccc(-c2nn(C)c3c(N4CC[C@@H](NC(C)=O)C4)nc(C)nc23)cc1OC [13-PROV] | > 100 µM |  | 
COc1cccc(-c2c(C)nc3c(N4CC[C@@H](NC(C)=O)C4)cc(Cl)nn23)c1 [14-PROV] |  | > 100 µM | 
CC(=O)N[C@@H]1CCN(c2ccnn3cc(C)nc23)C1 [15-PROV] |  | > 10 µM | 
CC(=O)N[C@@H]1CCN(c2cc(Cl)nn3c(-c4ccc(F)cc4)c(C)nc23)C1 [18-PROV] |  | > 100 µM | 
CC(=O)Nc1cccc(-c2c(C)nc3c(N4CC[C@@H](NC(C)=O)C4)cc(Cl)nn23)c1 [19-PROV] |  | > 100 µM | 
COc1cccc(-c2c(C)nc3c(N4CC[C@@H](NC(C)=O)C4)cc(C)nn23)c1 [20-PROV] |  | > 1 µM | 
CC(=O)Nc1cccc(-c2c(C)nc3c(N4CC[C@@H](NC(C)=O)C4)cc(C)nn23)c1 [22-PROV] |  | > 1 µM | 

Structure (SMILES) | IC50 (human nSMase2; [3]) | IC50 (human nSMase2; [4]) | also measured
CC(=O)N[C@@H]1CCN(c2cc(C)nn3c(I)c(C)nc23)C1 [23-PROV] |  | > 10 µM | 
COc1ccc(-c2csc3c(N4CC[C@@H](NC(C)=O)C4)nc(Cl)nc23)cc1OC [24-PROV] | > 100 µM |  | 
COc1ccc(-c2c(C)sc3c(N4CC[C@@H](NC(C)=O)C4)nc(Cl)nc23)cc1OC [25-PROV] | > 100 µM |  | 
COc1ccc(-c2scc3c(N4CC[C@@H](NC(C)=O)C4)nc(Cl)nc23)cc1OC [26-PROV] | > 100 µM |  | 
COc1ccc(-c2csc3c(N4CC[C@@H](NC(C)=O)C4)ncnc23)cc1OC [27-PROV] | > 100 µM |  | 
COc1ccc(-c2c(C)sc3c(N4CC[C@@H](NC(C)=O)C4)ncnc23)cc1OC [28-PROV] | > 100 µM |  | 
COc1ccc(-c2c(C)sc3c(N4CC[C@@H](NC(C)=O)C4)nc(C)nc23)cc1OC [29a-PROV] | > 100 µM |  | 
CC(=O)N[C@@H]1CCN(c2cc(C)nn3c(-c4cccs4)c(C)nc23)C1 [compound 13, (R)—N-(1-(2,6-dimethyl-3-(thiophen-2-yl)imidazo[1,2-b]pyridazin-8-yl)pyrrolidin-3-yl)acetamide] |  |  | Mouse Liver Microsome (+) NADPH % Remaining at 60 min [1]: 28 ± 2%; Human Liver Microsome (+) NADPH Remaining at 60 min [2]: 50 ± 4%
CC(=O)N[C@@H]1CCN(c2cc(C)nn3c(-c4ccc(OC(F)(F)F)cc4)c(C)nc23)C1 [compound 17, (R)—N-(1-(2,6-dimethyl-3-(4-(trifluoromethoxy)phenyl)imidazo[1,2-b]pyridazin-8-yl)pyrrolidin-3-yl)acetamide] |  |  | Mouse Liver Microsome (+) NADPH % Remaining at 60 min [1]: 72 ± 6%; Human Liver Microsome (+) NADPH Remaining at 60 min [2]: 114 ± 4%
COc1ccc(-c2c(C)nc3c(N4CC[C@@H](NS(=O)(=O)c5ccc(C)cc5)C4)cc(C)nn23)cc1OC [compound 22, (R)—N-(1-(3-(3,4-dimethoxyphenyl)-2,6-dimethylimidazo[1,2-b]pyridazin-8-yl)pyrrolidin-3-yl)-4-methylbenzenesulfonamide] |  |  | Mouse Liver Microsome (+) NADPH % Remaining at 60 min [1]: 2 ± 1%; Human Liver Microsome (+) NADPH Remaining at 60 min [2]: 29 ± 1%
COc1ccc(-c2c(C)nc3c(N4CC[C@@H](NS(=O)(=O)c5ccc(C(C)=O)cc5)C4)cc(C)nn23)cc1OC [compound 23, (R)-4-acetyl-N-(1-(3-(3,4-dimethoxyphenyl)-2,6-dimethylimidazo[1,2-b]pyridazin-8-yl)pyrrolidin-3-yl)benzenesulfonamide] |  |  | Mouse Liver Microsome (+) NADPH % Remaining at 60 min [1]: 5 ± 1%; Human Liver Microsome (+) NADPH Remaining at 60 min [2]: 12 ± 3%
COc1ccc(-c2c(C)nc3c(N4CC[C@@H](NS(=O)(=O)c5ccccc5)C4)cc(C)nn23)cc1OC [compound 28, (R)—N-(1-(3-(3,4-dimethoxyphenyl)-2,6-dimethylimidazo[1,2-b]pyridazin-8-yl)pyrrolidin-3-yl)benzenesulfonamide] |  |  | Mouse Liver Microsome (+) NADPH % Remaining at 60 min [1]: 20 ± 1%; Human Liver Microsome (+) NADPH Remaining at 60 min [2]: 43 ± 6%
COc1ccc(-c2c(C)nc3c(N4CC[C@@H](NS(=O)(=O)c5ccc(Cl)cc5)C4)cc(C)nn23)cc1OC [compound 29, (R)-4-chloro-N-(1-(3-(3,4-dimethoxyphenyl)-2,6-dimethylimidazo[1,2-b]pyridazin-8-yl)pyrrolidin-3-yl)benzenesulfonamide] |  |  | Mouse Liver Microsome (+) NADPH % Remaining at 60 min [1]: 7 ± 2%; Human Liver Microsome (+) NADPH Remaining at 60 min [2]: 32 ± 6%
COc1ccc(-c2c(C)nc3c(N4CC[C@@H](NS(=O)(=O)c5ccc(C(F)(F)F)cc5)C4)cc(C)nn23)cc1OC [compound 30, (R)—N-(1-(3-(3,4-dimethoxyphenyl)-2,6-dimethylimidazo[1,2-b]pyridazin-8-yl)pyrrolidin-3-yl)-4-(trifluoromethyl)benzenesulfonamide] |  |  | exosome release from astrocytes (rat astrocytes): decreased the number of exosomes released from astrocytes in a dose dependent manner; Mouse Liver Microsome (+) NADPH % Remaining at 60 min [1]: 15 ± 5%; Human Liver Microsome (+) NADPH Remaining at 60 min [2]: 61 ± 3%
COc1ccc(-c2c(C)nc3c(N4CC[C@@H](NC(=O)C(F)(F)F)C4)cc(C)nn23)cc1OC [compound 35, (R)—N-(1-(3-(3,4-dimethoxyphenyl)-2,6-dimethylimidazo[1,2-b]pyridazin-8-yl)pyrrolidin-3-yl)-2,2,2-trifluoroacetamide] |  |  | Mouse Liver Microsome (+) NADPH % Remaining at 60 min [1]: 117 ± 8%; Human Liver Microsome (+) NADPH Remaining at 60 min [2]: 113 ± 8%
COc1ccc(-c2c(C)nc3c(N4CC[C@@H](NC(=O)C(F)(F)c5ccccc5)C4)cc(C)nn23)cc1OC [compound 37, (R)—N-(1-(3-(3,4-dimethoxyphenyl)-2,6-dimethylimidazo[1,2-b]pyridazin-8-yl)pyrrolidin-3-yl)-2,2-difluoro-2-phenylacetamide] |  |  | Mouse Liver Microsome (+) NADPH % Remaining at 60 min [1]: 6 ± 1%; Human Liver Microsome (+) NADPH Remaining at 60 min [2]: 20 ± 2%
COc1ccc(-c2c(C)nc3c(N4CCCC4)cc(C)nn23)cc1OC [compound 44, 3-(3,4-dimethoxyphenyl)-2,6-dimethyl-8-(pyrrolidin-1-yl)imidazo[1,2-b]pyridazine] |  |  | exosome release from astrocytes (rat astrocytes): decreased the number of exosomes released from astrocytes in a dose dependent manner; Mouse Liver Microsome (+) NADPH % Remaining at 60 min [1]: 1 ± 0%; Human Liver Microsome (+) NADPH Remaining at 60 min [2]: 58 ± 4%

More lines, main results first:

IC50 (human nSMase2; [3]) | IC50 (human nSMase2; [4]) | Structure (SMILES) | also measured
> 100 µM |  | COc1ccc(-c2scc3c(N4CC[C@@H](NC(C)=O)C4)nc(C)nc23)cc1OC [29b-PROV] | 
> 100 µM |  | COc1ccc(-c2csc3c(N4CC[C@@H](NC(C)=O)C4)nc(C)nc23)cc1OC [30-PROV] | 
> 100 µM |  | COc1ccc(-c2c(C)nn3c(N4CC[C@@H](NC(C)=O)C4)nc(C)nc23)cc1OC [36-PROV] | 
 | > 1 µM | COc1cc(N2CC[C@@H](NC(C)=O)C2)c2nc(C)c(-c3ccc(OC)c(OC)c3)n2n1 [38-PROV] | 
 | ≤ 1 µM | CC(=O)N[C@@H]1CCN(c2cc(C)nn3c(-c4ccc5c(c4)OCO5)c(C)nc23)C1 [40-PROV] | 
 | > 1 µM | CC(=O)N[C@@H]1CCN(c2cc(C)nn3c(-c4cccc(S(C)(=O)=O)c4)c(C)nc23)C1 [42-PROV] | 
 | ≤ 1 µM | CC(=O)N[C@@H]1CCN(c2cc(C)nn3c(-c4ccc(O)cc4)c(C)nc23)C1 [47-PROV] | 
 | > 1 µM | CC(=O)N[C@@H]1CCN(c2cc(C)nn3c(C)c(C)nc23)C1 [48-PROV] | 
